Peptide text beside a SMILES is read from it.
Assay: Displacement of 5'-fluorescein(FAM)-QLDLF-OH from Escherichia coli AN1459 DNA polymerase 3beta by fluorescence polarization assay

| IC50 | Molecule | Kd |
| --- | --- | --- |
| 43.6 µM | Ac-NLDLF-OH | 20.3 µM |
| 603 µM | Ac-ALDLF-OH | 281 µM |
| 63.2 µM | CC(C)C[C@H](NC(=O)[C@H](CC(=O)O)NC(=O)[C@H](CC(C)C)NC(=O)[C@@H](N)CCC(N)=O)C(=O)N[C@@H](Cc1ccccc1)C(=O)O | 29.5 µM |
| 78.6 µM | Ac-QADLF-OH | 36.7 µM |
| 247 µM | Ac-QLDAF-OH | 115 µM |
| 60.4 µM | Ac-QVDLF-OH | 28.2 µM |
| 222 µM | Ac-ELDLF-OH | 104 µM |
| 4440 µM | CC(C)CCC(=O)N[C@@H](Cc1ccccc1)C(=O)O |  |
| 10.4 µM | Ac-QLGLF-OH | 4.9 µM |
| 555 µM | Ac-QLDLA-OH | 259 µM |
| 36.1 µM | Ac-QGDLF-OH | 16.8 µM |
| 21 µM | Ac-QLDLL-OH | 9.8 µM |
| 1100 µM | CC(=O)N[C@@H](CC(C)C)C(=O)N[C@@H](Cc1ccccc1)C(=O)O (Ac-Leu-Phe-OH) |  |
| 1070 µM | Ac-QLDLG-OH | 498 µM |
| 3.4 µM | Ac-QLALF-OH | 1.6 µM |
| 1220 µM | Ac-QLDVF-OH | 567 µM |
| 1520 µM | Ac-QLDGF-OH | 711 µM |
| 1.9 µM | CC(=O)N[C@@H](CCC(N)=O)C(=O)N[C@@H](CC(C)C)C(=O)N[C@@H](CC(=O)O)C(=O)N[C@@H](CC(C)C)C(=O)N[C@@H](Cc1ccccc1)C(=O)O | 0.9 µM |
| 976 µM | Ac-GLDLF-OH | 456 µM |
